For the series the following is noted: for aqueous solubility: pH 6.8.

Converted amounts (≈) assume the structure as drawn.

As to `Cc1ccc(F)cc1CNc1cc(C(=O)N(C)C)ccn1`, the MDR1-MDCK efflux ratio was 1.06; the intrinsic clearance, human liver microsomes amounted to 11.1 mL/min/kg; the intrinsic clearance, rat liver microsomes is 399 mL/min/kg; the aqueous solubility (as a rule, how much of the substance goes into solution per volume) was determined as 47.4 µg/mL (≈ 165 µM).
Turning to `CN1CC(=O)N(CCOc2ccccc2)C1=O`, the aqueous solubility is 23.1 µg/mL (≈ 98.4 µM).
On to `COc1cccc(CN2Cc3ccccc3OC3(CCOCC3)C2)c1`, for which the MDR1-MDCK efflux ratio is 0.527; the intrinsic clearance, human liver microsomes turned out to be 133 mL/min/kg; the intrinsic clearance, rat liver microsomes came to 1580 mL/min/kg; the aqueous solubility was determined as 16.1 µg/mL (≈ 47.3 µM).
`COc1cc(-c2ccc(Cn3nc(C)cc3C)cn2)cc(OC)c1OC`: the MDR1-MDCK efflux ratio is 1.65; the intrinsic clearance, human liver microsomes came out at 46.1 mL/min/kg; the intrinsic clearance, rat liver microsomes stood at 345 mL/min/kg.
For `O=c1cc(-c2cc(F)c(Cl)nc2Cl)[nH]c2c(-c3ccccc3)c(C(F)(F)F)nn12`, in that order: 1.91, no more than 4.74 mL/min/kg and 19.4 mL/min/kg.
For the compound `NC(=O)C1CCN(C(=O)CCc2ccc(Cl)cc2)CC1`, the MDR1-MDCK efflux ratio was 6.24; the intrinsic clearance, human liver microsomes is no more than 4.74 mL/min/kg; the intrinsic clearance, rat liver microsomes turned out to be 135 mL/min/kg; the aqueous solubility turned out to be 47.8 µg/mL (≈ 162 µM).
Consider `Cc1cc(C)n(-c2ccc(CNC(=O)c3ccc4c(c3)CCO4)cn2)n1`, for which the MDR1-MDCK efflux ratio was determined as 0.769; the intrinsic clearance, human liver microsomes was found to be 11.4 mL/min/kg; the intrinsic clearance, rat liver microsomes is 106 mL/min/kg; the aqueous solubility amounted to 3.86 µg/mL (≈ 11.1 µM).
On to `O=C(C1CC1)N1CCCC(C(=O)N2CCc3ccccc3C2Cc2ccccc2)C1` (stereo unspecified), for which the intrinsic clearance, human liver microsomes was 643 mL/min/kg; the intrinsic clearance, rat liver microsomes is 4390 mL/min/kg; the aqueous solubility worked out at 45 µg/mL (≈ 112 µM).
For the compound `Fc1ccc(CN2CCCN(c3ccc4nnnn4n3)CC2)cc1`, the MDR1-MDCK efflux ratio was determined as 0.606; the intrinsic clearance, human liver microsomes is 31.9 mL/min/kg; the intrinsic clearance, rat liver microsomes stood at 620 mL/min/kg.
For `CC(=O)NC1CCC(NCCc2c(C)cccc2C)CC1` (stereo unspecified), in that order: 19.8, no more than 4.74 mL/min/kg and 1140 mL/min/kg.
As to `CC(C)N(CCCNC(=O)Nc1ccc(C(C)(C)C)cc1)C[C@@H]1O[C@@H](n2ccc3c(N)ncnc32)[C@H](O)[C@H]1O`, the MDR1-MDCK efflux ratio was 6.05; the intrinsic clearance, human liver microsomes was determined as 187 mL/min/kg; the intrinsic clearance, rat liver microsomes stood at 1930 mL/min/kg.
`COc1cccc(O[C@H]2CCN(C(=O)c3cc(-c4ccc(F)cc4)on3)CC[C@@H]2O)c1`: the MDR1-MDCK efflux ratio came out at 0.882; the intrinsic clearance, human liver microsomes worked out at 66.3 mL/min/kg; the intrinsic clearance, rat liver microsomes came out at 577 mL/min/kg.
For `Cc1ncc(-c2ccc(C)c(S(=O)(=O)NCc3cnn(C)c3C)c2)o1`, the MDR1-MDCK efflux ratio is 36.5; the intrinsic clearance, human liver microsomes worked out at 177 mL/min/kg; the intrinsic clearance, rat liver microsomes came out at 1370 mL/min/kg.
With `Nc1ccc(Oc2ccccc2F)nc1`, the MDR1-MDCK efflux ratio amounted to 0.53; the intrinsic clearance, human liver microsomes was no more than 4.74 mL/min/kg; the intrinsic clearance, rat liver microsomes was 26.2 mL/min/kg; the aqueous solubility worked out at 25.6 µg/mL (≈ 125 µM).
Take `CC#CC(=O)N1CC[C@@H](n2cc(-c3ccc(Oc4c(F)cccc4F)cc3)c3c(N)n[nH]c(=O)c32)C1`: the MDR1-MDCK efflux ratio is 50.2; the fraction unbound, human plasma was found to be 0.00845; the fraction unbound, rat plasma stood at 0.00935; the intrinsic clearance, human liver microsomes came out at 41.7 mL/min/kg. The intrinsic clearance, rat liver microsomes was determined as 519 mL/min/kg and the aqueous solubility worked out at 2.7 µg/mL (≈ 5.52 µM).
Compound `O=C(C1CCCN(c2ccc(Cl)nn2)C1)N1CCc2ccccc2C1` (stereo unspecified) came in with an intrinsic clearance, human liver microsomes of 125 mL/min/kg; an intrinsic clearance, rat liver microsomes of 1650 mL/min/kg; an aqueous solubility of 49.8 µg/mL (≈ 139 µM).
Take `Cc1nnc2ccc(NCCOC3CCCCCC3)nn12`: the MDR1-MDCK efflux ratio came to 1.54; the intrinsic clearance, human liver microsomes stood at 49.9 mL/min/kg; the intrinsic clearance, rat liver microsomes was determined as 901 mL/min/kg.
For `Cc1csc(N(C(=O)c2cc3c(C)nn(C)c3s2)C2CC2)n1`, the MDR1-MDCK efflux ratio was found to be 0.642; the intrinsic clearance, human liver microsomes came to 121 mL/min/kg; the intrinsic clearance, rat liver microsomes was 255 mL/min/kg; the aqueous solubility amounted to 57.3 µg/mL (≈ 172 µM).
`COc1ccc(CCCNc2nnc(C)o2)cc1` gave an intrinsic clearance, human liver microsomes of no more than 4.74 mL/min/kg; an intrinsic clearance, rat liver microsomes of 151 mL/min/kg; an aqueous solubility of 25.4 µg/mL (≈ 103 µM).
`Cn1nccc1C(=O)C1CCN(C(=O)c2cc(C(C)(C)C)nn2C)CC1` yielded an intrinsic clearance, human liver microsomes of no more than 4.74 mL/min/kg and an intrinsic clearance, rat liver microsomes of 97.9 mL/min/kg.
Take `Cc1cc(N(C)C)nc(-n2cnc(C#N)n2)n1`: the MDR1-MDCK efflux ratio was found to be 0.595; the intrinsic clearance, human liver microsomes was 33.6 mL/min/kg; the intrinsic clearance, rat liver microsomes was 79.2 mL/min/kg; the aqueous solubility was 23.3 µg/mL (≈ 101 µM).
On to `Cc1oc(C)c(C(=O)Nc2ccn(C)n2)c1C`, for which the MDR1-MDCK efflux ratio was 0.597; the intrinsic clearance, human liver microsomes was found to be 75.4 mL/min/kg; the intrinsic clearance, rat liver microsomes amounted to 93.7 mL/min/kg; the aqueous solubility is 36.7 µg/mL (≈ 157 µM).
On to `CO[C@H]1/C=C\C=C(/C)C(=O)NC2=CC(=O)C(NCCN(C)C)=C(C[C@@H](C)C[C@@H](OC)[C@@H](O)[C@@H](C)/C=C(\C)[C@H]1OC(N)=O)C2=O`, for which the MDR1-MDCK efflux ratio was 61.5; the intrinsic clearance, human liver microsomes was 21 mL/min/kg; the intrinsic clearance, rat liver microsomes came to 73.6 mL/min/kg.
Regarding `Cc1nc2ncc3c(n2n1)CCCC3=O`, the MDR1-MDCK efflux ratio was determined as 0.752; the intrinsic clearance, human liver microsomes was no more than 4.74 mL/min/kg; the intrinsic clearance, rat liver microsomes was no more than 10.7 mL/min/kg.
As to `CCc1ncnc(N(C)Cc2ccc(N)nc2)c1F`, the MDR1-MDCK efflux ratio is 0.635; the intrinsic clearance, human liver microsomes is no more than 4.74 mL/min/kg; the intrinsic clearance, rat liver microsomes is 44.2 mL/min/kg; the aqueous solubility turned out to be 34.9 µg/mL (≈ 134 µM).
`C=CCN(c1ccc(C(=O)OC)cc1)S(=O)(=O)c1ccccc1` gave an aqueous solubility of 2.24 µg/mL (≈ 6.76 µM).
For the compound `CN(CC1(CO)CCCC1)C(=O)CCN1CCCCC1=O`, the MDR1-MDCK efflux ratio stood at 21.2; the intrinsic clearance, human liver microsomes is no more than 4.74 mL/min/kg; the intrinsic clearance, rat liver microsomes amounted to 113 mL/min/kg.
For `COc1ccc(C(=O)N(C)Cc2nccn2C)c(F)c1`, the MDR1-MDCK efflux ratio was 2.22; the intrinsic clearance, human liver microsomes is no more than 4.74 mL/min/kg; the intrinsic clearance, rat liver microsomes amounted to 53.8 mL/min/kg; the aqueous solubility was determined as 52.5 µg/mL (≈ 189 µM).
For `O=C(Nc1ccc(F)cc1)c1cc(C2CC2)nn1-c1ccccc1`, in that order: 0.314, 20.7 mL/min/kg, 76.3 mL/min/kg and 4.11 µg/mL (≈ 12.8 µM).
The compound `CCN1C(=O)C(=O)N(Cc2sc3ccccc3c2Cl)C1=O` came in with an aqueous solubility of 0.3 µg/mL (≈ 0.929 µM).
On to `NC1CCCC(C(=O)N2CCC(c3c[nH]c4ncccc34)CC2)C1` (stereo unspecified), for which the MDR1-MDCK efflux ratio was 1.5; the fraction unbound, human plasma was 0.566; the intrinsic clearance, human liver microsomes was no more than 4.74 mL/min/kg.
With `CN(C)c1ccc2c(c1)OCCN2C(=O)NCc1cccnc1`, the MDR1-MDCK efflux ratio stood at 2.66; the intrinsic clearance, human liver microsomes is 23.6 mL/min/kg; the intrinsic clearance, rat liver microsomes amounted to 746 mL/min/kg; the aqueous solubility was determined as 48.1 µg/mL (≈ 154 µM).
`CC(C)C[C@H](CO)Nc1nc(S[C@@H](C)c2ccccc2)nc2nc(N)sc12` yielded an intrinsic clearance, human liver microsomes of 40.2 mL/min/kg and an intrinsic clearance, rat liver microsomes of 329 mL/min/kg.

Values taken from the Biogen ADME set (Fang et al. 2023).
